Source: US20250145592A1 (NICO Therapeutics, Inc., priority 2022, published 2025)
pIC50: −log10 of the molar value. Like-named read-outs stand apart in the source and are kept apart here.

Tested on: IL-1β secretion in THP-1 cells (NLRP3)
Assay: IL-1β secretion assay in PMA-differentiated THP-1 cells stimulated with LPS and nigericin (ELISA readout)
Assay type: cell-based
Conditions: Homo sapiens, IL-1β ELISA
Description: Compounds as provided herein were tested in the following assay. Cell culture medium employed contained RPMI 1640 medium (89%), FBS (10%), Pen/Strep (1%), and 2-mercaptoethanol (0.05 mM). Freezing medium was made up of 90% FBS and 10% DMSO. THP-1 cells were removed from the liquid nitrogen and placed into a 37° C. water bath to thaw, until signs of ice dissipated. The cells were then added to 9 mL of warm cell culture medium and centrifuged for 5 minutes at 1000 rpm. The supernatant was discarded, and the cells were resuspended in new cell culture medium. THP-1 cells were then split and cultured in the cell culture medium, being passaged every 2-3 days with the cell density will be maintained between 5×10^5 and 1.5×10^6 viable cells/mL.
To freeze, cells were resuspended with fresh freezing medium, adjusting the cell density to 5×10^6 cells/mL. The cell suspension was partitioned into 1 mL aliquots per vial, and the vials were transferred to a −80° C. freezer. After one day at −80° C., the cell vials were transferred to liquid nitrogen freezer for storage.
PMA was dissolved in DMSO to make a stock solution at 5 mg/ml and stored in 10 μl aliquots at −20° C. for single use. PMA is added to normal growth medium. LPS was diluted with 1 mL of water solution to provide a 1 mg/mL stock solution and stored in 15 μl aliquots at −20° C. for single use. Nigericin is diluted in ice cold 100% ethanol to 5 mg/ml (6.7 mM) and stored in 75 μL aliquots at −20° C. for single use. Serum-free media contains RPMI 1640 medium (99%), Pen/Strep (1%), and 2-mercaptoethanol (0.05 mM). The two control conditions used to qualify and normalize test compound dose-response curves were as follows: High Control=25 ng/mL LPS, […], 0.5% DMSO, Low Control=25 ng/mL, LPS, 0.5% DMSO.
THP-1 cells were diluted to provide a suspension at a concentration of 1.0×10^6 cells/mL with the total volume of suspension required to enable the desired number of assay plates. The growth media was supplemented with PMA (5 ng/mL final concentration) and the cells were incubated at 37° C. under a humidified atmosphere of 5% CO2 for 40 h.
All media was carefully aspirated from each culture flask. The cells were washed carefully with 1×DPBS. The cells were then briefly digested with trypsin LE for 5 minutes at 23° C. and immediately resuspended in cell growth media. After resuspension, the cells were centrifuged at 1000 rpm for 3 minutes and the supernatant was discarded. The cells were resuspended in DPBS and once again centrifuged at 1000 rpm for 5 minutes. The supernatant was discarded and the cell pellet was resuspended in serum-free media supplemented with LPS (25 ng/mL final concentration) to enable the distribution of 30K THP-1 cells within 45 μL of media into each well of 384-well PDL-coated plates. The 384-well plates were then incubated at 37° C. under a humidified atmosphere of 5% CO2 for 2 h. Following this period, test compounds were dispensed by Tecan across the desired concentration range with all wells normalized to a final 0.5% DMSO concentration. The plates were then then incubated at 37° C. under a humidified atmosphere of 5% CO2 for 1 h. Following this period, 5 μL of the 5 mg/mL nigericin stock solution was added to each of the appropriate wells and plates were centrifuged at 1000 rpm for 30 seconds. The plates were the immediately reintroduced to the incubator at 37° C. under a humidified atmosphere of 5% CO2 for 2 h. After this time, 35 μL/well of supernatant was collected and transferred into v-bottom plate and centrifuged at 1000 rpm for 1 minute. These supernatant aliquots were analyzed using an IL-Iβ detection kit as described below. If needed, the test samples could be snap frozen and stored at −80° C. until analyzed.
To prepare each ELISA plate, capture antibody (mAb Mt175) was diluted with PBS to a final concentration of […] and then 20 µL of this solution was added to each well of the ELISA plate.
Each plate was allowed to incubate overnight at 4° C. […]

[1] = THP-1, Table 3, LPS 25 ng/mL + nigericin, read-out: Activity (IC50 class)
[2] = THP-1, Table 4, LPS 25 ng/mL + nigericin, read-out: Activity (IC50)

| pIC50 [1] | pIC50 [2] | Compound |
| --- | --- | --- |
| > 6.00 | 6.35 | COC1(C(F)(F)F)CC(Oc2nn(CC(=O)Nc3ncc(F)cn3)c(=O)c3ccc(Br)cc23)C1 (stereo not drawn) [Example 43] |
| > 6.00 | 6.31 | O=C(Cn1nc(O[C@H]2C[C@@H](F)C2)c2cc(Br)ccc2c1=O)Nc1ncc(F)cn1 [Example 44, 2-[6-bromo-4-(cis-3-fluorocyclobutyl)oxy-1-oxophthalazin-2-yl]-N-(5-fluoropyrimidin-2-yl)acetamide] |
| > 6.00 | 6.04 | O=C(Cn1nc(O[C@H]2C[C@H](F)C2)c2cc(Br)ccc2c1=O)Nc1ncc(F)cn1 [Example 45, 2-[6-bromo-4-(trans-3-fluorocyclobutyl)oxy-1-oxophthalazin-2-yl]-N-(5-fluoropyrimidin-2-yl)acetamide] |
| > 6.00 | 6.06 | O=C(Cn1nc(OC2CC3CC[C@@H]2C3)c2cc(Br)ccc2c1=O)Nc1ncc(F)cn1 (stereo partly drawn) [Example 46, 2-[4-[[(1r,2r,4s)-2-bicyclo[2.2.1]heptanyl]oxy]-6-bromo-1-oxophthalazin-2-y1]-N-(5-fluoropyrimidin-2-yl)acetamide] |
| 5.00 to 6.00 | 5.85 | O=C(Cn1nc(OCCF)c2cc(Br)ccc2c1=O)Nc1ncc(F)cn1 [Example 47, 2-[6-bromo-4-(2-fluoroethoxy)-1-oxophthalazin-2-yl]-N-(5-fluoropyrimidin-2-yl)acetamide] |
| > 6.00 | 6.25 | O=C(Cn1nc(OCC(F)F)c2cc(Br)ccc2c1=O)Nc1ncc(F)cn1 [Example 48, 2-[6-bromo-4-(2,2-difluoroethoxy)-1-oxophthalazin-2-yl]-N-(5-fluoropyrimidin-2-yl)acetamide] |
| 5.00 to 6.00 | 5.82 | O=C(Cn1nc(OC2CC(F)(F)C2)c2cc(Br)ccc2c1=O)Nc1ncc(F)cn1 [Example 49, 2-[6-bromo-4-(3,3-difluorocyclobutyl)oxy-1-oxophthalazin-2-yl]-N-(5-fluoropyrimidin-2-yl)acetamide] |
| > 6.00 | 6.46 | O=C(Cn1nc(OCC2CC2)c2cc(Br)ccc2c1=O)Nc1ncc(F)cn1 [Example 50, 2-[6-bromo-4-(cyclopropylmethoxy)-1-oxophthalazin-2-yl]-N-(5-fluoropyrimidin-2-yl)acetamide] |
|  | 6.41 | O=C(Cn1nc(OC2C[C@@H]2F)c2cc(Br)ccc2c1=O)Nc1ncc(F)cn1 (stereo partly drawn) [Example 53, 2-[6-bromo-4-[2-trans-fluorocyclopropyl]oxy-1-oxophthalazin-2-yl]-N-(5-fluoropyrimidin-2-yl)acetamide] |
|  | 6.31 | O=C(Cn1nc(OC2C[C@H]2F)c2cc(Br)ccc2c1=O)Nc1ncc(F)cn1 (stereo partly drawn) [Example 54, 2-[6-bromo-4-[2-cis-fluorocyclopropyl]oxy-1-oxophthalazin-2-yl]-N-(5-fluoropyrimidin-2-yl)acetamide] |
